Consider 31 molecules from ChEMBL document CHEMBL4308870, “Discovery and SAR studies of novel 2-anilinopyrimidine-based selective inhibitors against triple-negative breast cancer cell line MDA-MB-468” (2019).

Common to all, as to type: functional
The subject of assay [1] is MCF7. Description: Cytotoxicity against human MCF7 cells assessed as cell viability at 10 uM after 48 hrs by MTT assay relative to control. The note with it: MCF7, 48 h, read-out: Activity.
The test system of assay [2] is MDA-MB-468. Description: cells. The note with it: Homo sapiens, MDA-MB-468, 48 h.
Description: Growth inhibition of EGFR over-expressing human MDA-MB-468 cells after 48 hrs by MTT assay
In assay [3] the test system is MDA-MB-468. In words: Cytotoxicity against EGFR over-expressing human MDA-MB-468 cells assessed as cell viability at 10 uM after 48 hrs by MTT assay relative to control. The note with it: MDA-MB-468, 48 h, read-out: Activity.
Assay [4] relates to MCF7. In words: cells. The settings on record: Homo sapiens, MCF7, 48 h.
Description: Growth inhibition of human MCF7 cells after 48 hrs by MTT assay
Assay [5] in a line: Selectivity index, ratio of GI50 for human MCF7 cells to GI50 for EGFR over-expressing human MDA-MB-468 cells.

For orientation: GI50 means the concentration at which growth is held to half of that of the control. A lower GI50 goes with more potent growth inhibition. Regarding `ClC1CCN(c2ccnc(Nc3ccc(OCCCN4CCCCC4)cc3)n2)CC1`, the viability at 10 µM in the assay on MCF7 [1] came to 87.1%; in the assay on MDA-MB-468 [3], 52.1%. Moreover, the GI50 is 11.5 µM in the assay on MDA-MB-468 [2] and over 30 µM with MCF7 [4]. For the same molecule, in assay [5], the RatioGI50 is listed as over 2.6.
Consider `CC1CCN(c2ccnc(Nc3ccc(OCCCN4CCSCC4)cc3)n2)CC1`, for which the viability at 10 µM in the assay on MCF7 [1] was determined as 79.5%; with MDA-MB-468 [3], 61.3%.
For `CCN(CC)CCCOc1ccc(Nc2nccc(N3CCCC3)n2)cc1`, in that order: 78.5% and 69.7%.
Turning to `CC1CCN(c2ccnc(Nc3ccc(OCCCN4CCOCC4)cc3)n2)CC1`, the viability at 10 µM in the assay on MCF7 [1] worked out at 71.8%; with MDA-MB-468 [3], 51.3%. Besides, the figures for the GI50 in the assay with MDA-MB-468 [2] and in the assay with MCF7 [4] were 16.3 µM and over 30 µM, respectively. Further, the RatioGI50 in assay [5] was over 1.8.
With `c1cc(N2CCCC2)nc(Nc2ccc(OCCCN3CCCCC3)cc2)n1`, the viability at 10 µM is 66.1% in the assay with MCF7 [1] and 58.1% with MDA-MB-468 [3].
`c1cc(N2CCCCC2)nc(Nc2ccc(OCCCN3CCOCC3)cc2)n1`: the viability at 10 µM worked out at 61.8% in the assay on MCF7 [1] and 55.2% in the assay on MDA-MB-468 [3]. Besides, the results for the GI50 in the assay on MDA-MB-468 [2] and with MCF7 [4] were 18.3 µM and over 30 µM, respectively.
Take `c1cc(N2CCCCC2)nc(Nc2ccc(OCCCN3CCSCC3)cc2)n1`: the results for the viability at 10 µM in the assay with MCF7 [1] and in the assay on MDA-MB-468 [3] were 72.9% and 71.8%, respectively.
Taken in the same sequence, the figures for `CCN(CC)CCCOc1ccc(Nc2nccc(N3CCCCC3)n2)cc1` were 95.4% and 62%.
As to `CC1CCN(c2ccnc(Nc3ccc(OCCCN4CCCCC4)cc3)n2)CC1`, the viability at 10 µM with MCF7 [1] was determined as 73.7%; with MDA-MB-468 [3], 21.3%. For the same molecule, the GI50 in the assay on MDA-MB-468 [2] is 6.4 µM; in the assay on MCF7 [4] it was 28.1 µM. Besides, the RatioGI50 in assay [5] worked out at 4.4.
For `c1cc(N2CCCCC2)nc(Nc2ccc(OCCCN3CCCCC3)cc2)n1`, in that order: 86.7%, 45.1%, 9.2 µM, over 30 µM and over 3.3.
Regarding `CCN(CC)c1ccnc(Nc2ccc(OCCCN3CCOCC3)cc2)n1`, the viability at 10 µM was found to be 94.9% in the assay on MCF7 [1] and 69.7% in the assay on MDA-MB-468 [3].
Taken in the same sequence, the figures for `ClC1CCN(c2ccnc(Nc3ccc(OCCCN4CCSCC4)cc3)n2)CC1` were 87.7% and 62.7%.
Consider `CCN(CC)CCCOc1ccc(Nc2nccc(N3CCN(C)CC3)n2)cc1`, for which the viability at 10 µM in the assay with MCF7 [1] turned out to be 67%; in the assay on MDA-MB-468 [3], 64.6%.
Regarding `CCN(CC)c1ccnc(Nc2ccc(OCCCN3CCSCC3)cc2)n1`, the viability at 10 µM in the assay with MCF7 [1] is 91.9%; with MDA-MB-468 [3], 36%. In addition, the GI50 in the assay with MDA-MB-468 [2] was determined as 7.6 µM; in the assay with MCF7 [4], 27.3 µM. Besides, the RatioGI50 in assay [5] came out at 3.6.
With `c1cc(N2CCOCC2)nc(Nc2ccc(OCCCN3CCCCC3)cc2)n1`, the results for the viability at 10 µM in the assay on MCF7 [1] and in the assay with MDA-MB-468 [3] were 95.7% and 86.8%, respectively.
Taken in the same sequence, the figures for `CN1CCN(c2ccnc(Nc3ccc(OCCCN4CCOCC4)cc3)n2)CC1` were 89.6% and 80.7%.
For `ClC1CCN(c2ccnc(Nc3ccc(OCCCN4CCOCC4)cc3)n2)CC1`, in that order: 93.3% and 61.6%.
For `c1cc(N2CCSCC2)nc(Nc2ccc(OCCCN3CCOCC3)cc2)n1`, in that order: 86.1% and 73.4%.
Turning to `CCN(CC)c1ccnc(Nc2ccc(OCCCN3CCCCC3)cc2)n1`, the figures for the viability at 10 µM in the assay on MCF7 [1] and in the assay on MDA-MB-468 [3] were 69.7% and 53.1%, respectively. Besides, the GI50 in the assay on MDA-MB-468 [2] was determined as 11.4 µM; in the assay with MCF7 [4], 18.3 µM. Further, the RatioGI50 in assay [5] came out at 1.6.
Turning to `c1cc(N2CCSCC2)nc(Nc2ccc(OCCCN3CCSCC3)cc2)n1`, the viability at 10 µM with MCF7 [1] amounted to 77.8%; with MDA-MB-468 [3] it was 65%.
Taken in the same sequence, the figures for `CCN(CC)CCCOc1ccc(Nc2nccc(N3CCSCC3)n2)cc1` were 86.4% and 88%.
Taken in the same sequence, the figures for `c1cc(N2CCSCC2)nc(Nc2ccc(OCCCN3CCCCC3)cc2)n1` were 60% and 78.1%.
For `CCN(CC)CCCOc1ccc(Nc2nccc(N3CCOCC3)n2)cc1`, the values for the viability at 10 µM in the assay on MCF7 [1] and with MDA-MB-468 [3] were 66.5% and 79.4%, respectively.
Regarding `CN1CCN(c2ccnc(Nc3ccc(OCCCN4CCCCC4)cc3)n2)CC1`, the viability at 10 µM was 76.9% with MCF7 [1] and 71.7% with MDA-MB-468 [3].
Taken in the same sequence, the figures for `c1cc(N2CCOCC2)nc(Nc2ccc(OCCCN3CCSCC3)cc2)n1` were 67.9% and 57.4%.
For `CN1CCN(c2ccnc(Nc3ccc(OCCCN4CCSCC4)cc3)n2)CC1`, in that order: 79.8% and 56.5%.
For `c1cc(N2CCOCC2)nc(Nc2ccc(OCCCN3CCOCC3)cc2)n1`, in that order: 83.2% and 84.5%.
As for `COc1cc2ncnc(Nc3ccc(F)c(Cl)c3)c2cc1OCCCN1CCOCC1` [GEFITINIB], the viability at 10 µM in the assay on MCF7 [1] was determined as 70.3%; in the assay on MDA-MB-468 [3] it was 60.3%.
Taken in the same sequence, the figures for `c1cc(N2CCCC2)nc(Nc2ccc(OCCCN3CCOCC3)cc2)n1` were 89% and 77.1%.
For `c1cc(N2CCCC2)nc(Nc2ccc(OCCCN3CCSCC3)cc2)n1`, in that order: 84.7% and 78.3%.
With `CCN(CC)CCCOc1ccc(Nc2nccc(N3CCC(C)CC3)n2)cc1`, the viability at 10 µM was 93.2% with MCF7 [1] and 16.9% in the assay on MDA-MB-468 [3]. Besides, the results for the GI50 in the assay on MDA-MB-468 [2] and in the assay on MCF7 [4] were 6.9 µM and over 30 µM, respectively. Besides, the RatioGI50 in assay [5] was over 4.3.
